pIC50: −log10 of the molar value.
Test system: K86415-001-R-J1-PDC complex spheroids, viability
Assay: Anticancer human tumor K86415-001-R-J1-PDC patient-derived lung adenocarcinoma cell line growth inhibition [RAS]
Details: for pIC50: curve of first compound; for viability, T/C: stronger effect = lower value
Outline: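 Agents were tested in combination matrices in half-log decrements from a top concentration at or near clinical Cmax (10 microM if undetermined). Targets were multi-cell spheroids of tumour lines plus HUVEC and MSC stromal cells.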

[1] = second compound 0.00316 µM, first compound 0.0316 µM
[2] = second compound 0.00316 µM, first compound 0.1 µM
[3] = second compound 0.00316 µM, first compound 0.316 µM
[4] = second compound 0.00316 µM, first compound 1 µM
[5] = second compound 0.00316 µM, first compound 3.16 µM
[6] = second compound 0.00316 µM, first compound 10 µM
[7] = second compound 0.01 µM, first compound 0.0316 µM
[8] = second compound 0.01 µM, first compound 0.1 µM
[9] = second compound 0.01 µM, first compound 0.316 µM
[10] = second compound 0.01 µM, first compound 1 µM
[11] = second compound 0.01 µM, first compound 3.16 µM
[12] = second compound 0.01 µM, first compound 10 µM
[13] = second compound 0.0316 µM, first compound 0.0316 µM
[14] = second compound 0.0316 µM, first compound 0.1 µM
[15] = second compound 0.0316 µM, first compound 0.316 µM
[16] = second compound 0.0316 µM, first compound 1 µM
[17] = second compound 0.0316 µM, first compound 3.16 µM
[18] = second compound 0.0316 µM, first compound 10 µM
[19] = second compound 0.1 µM, first compound 0.0316 µM
[20] = second compound 0.1 µM, first compound 0.1 µM
[21] = second compound 0.1 µM, first compound 0.316 µM
[22] = second compound 0.1 µM, first compound 1 µM
[23] = second compound 0.1 µM, first compound 3.16 µM
[24] = second compound 0.1 µM, first compound 10 µM
[25] = second compound 0.316 µM, first compound 0.0316 µM
[26] = second compound 0.316 µM, first compound 0.1 µM
[27] = second compound 0.316 µM, first compound 0.316 µM
[28] = second compound 0.316 µM, first compound 1 µM
[29] = second compound 0.316 µM, first compound 3.16 µM
[30] = second compound 0.316 µM, first compound 10 µM
[31] = second compound 1 µM, first compound 0.0316 µM
[32] = second compound 1 µM, first compound 0.1 µM
[33] = second compound 1 µM, first compound 0.316 µM
[34] = second compound 1 µM, first compound 1 µM
[35] = second compound 1 µM, first compound 3.16 µM
[36] = second compound 1 µM, first compound 10 µM
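Note: spheroids exposed to agents for seven days before readout.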

CC(C)NCC(C(=O)N1CCN(c2ncnc3c2C(C)CC3O)CC1)c1ccc(Cl)cc1 (stereo unspecified) + C=CC(=O)N1CCN(c2nc(OCC3CCCN3C)nc3c(F)c(-c4nc(N)cc(C)c4C(F)(F)F)c(Cl)cc23)C(C)C1
pIC50 (second compound 0.00316 µM): > 7.50 | pIC50 (second compound 0.01 µM): > 7.50 | pIC50 (second compound 0.0316 µM): > 7.50 | pIC50 (second compound 0.1 µM): > 7.50 | pIC50 (second compound 0.316 µM): > 7.50 | pIC50 (second compound 1 µM): > 7.50 | viability, T/C [1]: 15.9% | viability, T/C [2]: 17.9% | viability, T/C [3]: 13.7% | viability, T/C [4]: 11.4% | viability, T/C [5]: 22.4% | viability, T/C [6]: 18.6% | viability, T/C [7]: 13.2% | viability, T/C [8]: 14.1% | viability, T/C [9]: 8.15% | viability, T/C [10]: 7.26% | viability, T/C [11]: 9.79% | viability, T/C [12]: 5.61% | viability, T/C [13]: 11.2% | viability, T/C [14]: 12.1% | viability, T/C [15]: 6.32% | viability, T/C [16]: 6.17% | viability, T/C [17]: 6.03% | viability, T/C [18]: 3.62% | viability, T/C [19]: 17.1% | viability, T/C [20]: 9.65% | viability, T/C [21]: 7.67% | viability, T/C [22]: 4.58% | viability, T/C [23]: 6.35% | viability, T/C [24]: 2.96% | viability, T/C [25]: 12.1% | viability, T/C [26]: 8.49% | viability, T/C [27]: 6.58% | viability, T/C [28]: 5.42% | viability, T/C [29]: 7.11% | viability, T/C [30]: 4.04% | viability, T/C [31]: 9.4% | viability, T/C [32]: 10.8% | viability, T/C [33]: 7.39% | viability, T/C [34]: 6.41% | viability, T/C [35]: 5.23% | viability, T/C [36]: 3.49%

CC1(O)CCCC1n1c(=O)c(C(F)F)cc2cnc(NC3CCN(S(C)(=O)=O)CC3)nc21 (stereo unspecified) + CCn1c(-c2cccnc2C(C)OC)c2c3cc(ccc31)N1CCOC(CC(NC(=O)C(C(C)C)N(C)C(=O)C3(F)CCN(C(=O)C#CC(C)(C)N(C)C)CC3)C(=O)N3CCCC(N3)C(=O)OCC(C)(C)C2)C1
pIC50 (second compound 0.000949 µM): > 7.50 | pIC50 (second compound 0.003 µM): > 7.50 | pIC50 (second compound 0.00949 µM): > 7.50 | pIC50 (second compound 0.03 µM): > 7.50 | pIC50 (second compound 0.0949 µM): > 7.50 | pIC50 (second compound 0.3 µM): > 7.50 | viability, T/C (second compound 0.000949 µM, first compound 0.0316 µM): 30.1% | viability, T/C (second compound 0.000949 µM, first compound 0.1 µM): 32.6% | viability, T/C (second compound 0.000949 µM, first compound 0.316 µM): 21.6% | viability, T/C (second compound 0.000949 µM, first compound 1 µM): 38.8% | viability, T/C (second compound 0.000949 µM, first compound 3.16 µM): 48.3% | viability, T/C (second compound 0.000949 µM, first compound 10 µM): 4.79% | viability, T/C (second compound 0.003 µM, first compound 0.0316 µM): 12.8% | viability, T/C (second compound 0.003 µM, first compound 0.1 µM): 11.3% | viability, T/C (second compound 0.003 µM, first compound 0.316 µM): 14.8% | viability, T/C (second compound 0.003 µM, first compound 1 µM): 17.3% | viability, T/C (second compound 0.003 µM, first compound 3.16 µM): 25% | viability, T/C (second compound 0.003 µM, first compound 10 µM): 4.45% | viability, T/C (second compound 0.00949 µM, first compound 0.0316 µM): 13.9% | viability, T/C (second compound 0.00949 µM, first compound 0.1 µM): 10.5% | viability, T/C (second compound 0.00949 µM, first compound 0.316 µM): 12.7% | viability, T/C (second compound 0.00949 µM, first compound 1 µM): 18.9% | viability, T/C (second compound 0.00949 µM, first compound 3.16 µM): 19.8% | viability, T/C (second compound 0.00949 µM, first compound 10 µM): 4.71% | viability, T/C (second compound 0.03 µM, first compound 0.0316 µM): 13.7% | viability, T/C (second compound 0.03 µM, first compound 0.1 µM): 13.3% | viability, T/C (second compound 0.03 µM, first compound 0.316 µM): 14.6% | viability, T/C (second compound 0.03 µM, first compound 1 µM): 15.6% | viability, T/C (second compound 0.03 µM, first compound 3.16 µM): 18.1% | viability, T/C (second compound 0.03 µM, first compound 10 µM): 4.45% | viability, T/C (second compound 0.0949 µM, first compound 0.0316 µM): 11.3% | viability, T/C (second compound 0.0949 µM, first compound 0.1 µM): 15% | viability, T/C (second compound 0.0949 µM, first compound 0.316 µM): 11.6% | viability, T/C (second compound 0.0949 µM, first compound 1 µM): 20.2% | viability, T/C (second compound 0.0949 µM, first compound 3.16 µM): 14.9% | viability, T/C (second compound 0.0949 µM, first compound 10 µM): 5.12% | viability, T/C (second compound 0.3 µM, first compound 0.0316 µM): 13% | viability, T/C (second compound 0.3 µM, first compound 0.1 µM): 14.5% | viability, T/C (second compound 0.3 µM, first compound 0.316 µM): 12.7% | viability, T/C (second compound 0.3 µM, first compound 1 µM): 14.6% | viability, T/C (second compound 0.3 µM, first compound 3.16 µM): 17.6% | viability, T/C (second compound 0.3 µM, first compound 10 µM): 3.94%

CCC(CC)c1cc(NC2CCC(N)C2)n2nccc2n1 (stereo unspecified) + C=CC(=O)N1CCN(c2nc(OCC3CCCN3C)nc3c(F)c(-c4nc(N)cc(C)c4C(F)(F)F)c(Cl)cc23)C(C)C1
pIC50 (second compound 0.00316 µM): > 7.50 | pIC50 (second compound 0.01 µM): > 7.50 | pIC50 (second compound 0.0316 µM): > 7.50 | pIC50 (second compound 0.1 µM): > 7.50 | pIC50 (second compound 0.316 µM): > 7.50 | pIC50 (second compound 1 µM): > 7.50 | viability, T/C [1]: 21.7% | viability, T/C [2]: 20.9% | viability, T/C [3]: 26.4% | viability, T/C [4]: 45.6% | viability, T/C [5]: 2.88% | viability, T/C [6]: 3.26% | viability, T/C [7]: 13.3% | viability, T/C [8]: 12.7% | viability, T/C [9]: 16.9% | viability, T/C [10]: 23.3% | viability, T/C [11]: 2.98% | viability, T/C [12]: 2.44% | viability, T/C [13]: 10.7% | viability, T/C [14]: 13.9% | viability, T/C [15]: 11.7% | viability, T/C [16]: 15.9% | viability, T/C [17]: 3.17% | viability, T/C [18]: 2.7% | viability, T/C [19]: 10.3% | viability, T/C [20]: 12% | viability, T/C [21]: 12.8% | viability, T/C [22]: 13.7% | viability, T/C [23]: 3.12% | viability, T/C [24]: 2.45% | viability, T/C [25]: 11.8% | viability, T/C [26]: 14% | viability, T/C [27]: 12% | viability, T/C [28]: 17.7% | viability, T/C [29]: 2.62% | viability, T/C [30]: 3.41% | viability, T/C [31]: 10.5% | viability, T/C [32]: 13.1% | viability, T/C [33]: 15.1% | viability, T/C [34]: 14.7% | viability, T/C [35]: 3.95% | viability, T/C [36]: 4.47%

— PubChem BioAssay AID2060893 (Molecular Pharmacology Branch, DTP, NCI, 2025)
